Melting point data for 63 compounds are collected here from a melting point compilation (Tetko et al.; mined from patent text by program, amines drawn as free bases though some values may be those of a salt).

The melting point is the temperature, or range, at which the solid turns liquid. The compound `O=C(c1ccccc1)C(O)C1OC(n2cnc3c(NC4CCCc5ccccc54)ncnc32)C(O)C1O` (stereo not drawn) registered a melting point of 107 to 112 °C. In turn, `Cc1cccc(C2(C)OC(C)C(C)O2)c1NC(=O)CCl` (stereo not drawn) had a melting point of 55 to 57 °C. The compound `CSc1sc2ccccc2c1C=O` returned a melting point of 50 to 53 °C. For the compound `Nc1nc(N)c2ncn(OCCCCP(=O)(O)O)c2n1`, the melting point lay within 295 to 297 °C. Next, `CCOC(=O)c1c(O)c2ccc(C)nc2n(Cc2ccccc2)c1=O`: 155 to 157 °C; `Cc1cc(F)cc2nc(Cl)c(Cl)nc12`: 116 to 120 °C. `CC(C)(C)OC(=O)n1cnc(CN2C[C@@H](Cc3ccccc3)N(S(C)(=O)=O)Cc3cc(C#N)ccc32)c1`: the melting point was 150 to 151 °C.

`CCOC(=O)CCCCCCCCCCSc1nc(-c2ccccc2)c(-c2ccccc2)[nH]1` registered a melting point of 57 to 59 °C.

As for `CCc1ccc(NCc2ccc(N(C)C)cc2)cc1`, the melting point lay within 64 to 66 °C. Take `O=S(=O)(Cc1ccccc1)c1nc[nH]n1`: the melting point fell in the range of 160 to 162 °C. `Cc1c(N2CCN(Cc3ccccc3)CC2)c(F)cc2c(=O)c(C(=O)O)cn(C3CC3)c12` showed a melting point of 209 to 211 °C. `Cc1cccc(OCC(O)CNCCOc2ccccc2)c1` (stereo not drawn) displayed a melting point of 81 to 82 °C. Take `CCOC(=O)c1c(N2CCN(C)CC2)c2cc(F)ccc2n(Cc2ccccc2)c1=O`: the melting point is 156 °C. Consider `Cc1cccc2nc(C)n(-c3ccccc3)c12`, for which the melting point was in the range of 107 to 109 °C.

Turning to `COc1ccc2cc(C=CC(C)OC(C)=O)ccc2c1` (stereo not drawn), the melting point lay in the range of 78 to 80 °C. As for `CCCCCc1c(C(C)C)nc(C(C)C)c(C(C)O)c1-c1ccc(F)cc1` (stereo not drawn), the melting point is 83 °C. As for `Cc1ccccc1-c1c(C(=O)N(C)Cc2cc(C(F)(F)F)cc(C(F)(F)F)c2)c(=O)oc2ccccc12`, the melting point was in the range of 130 to 131 °C.

Regarding `CCOC(=O)c1nc(N)sc1C(=O)c1ccccn1`, the melting point lay within 143 to 144 °C. Regarding `CC1(C)CCC(N2c3ccccc3Oc3ccc(Cl)cc32)=N1`, the melting point lay within 118 to 120 °C.

With `CNC1=NS(=O)(=O)N=C1NCCSCc1ccc(CN(C)C)o1`, the melting point was in the range of 92 to 96 °C.

Take `CC[C@@H]1COC(=O)N1c1nc(-c2ccc(C#N)cc2)cs1`: the melting point lay in the range of 153 to 157 °C.

With `CN1CCN(c2cccc3ccc(OC(=O)c4ccc(Cl)cc4)cc23)CC1`, the melting point is 110 to 111 °C. Turning to `O=C(c1ccc(Br)cc1)c1cc(Br)c(C(=O)c2ccc(Br)cc2)cc1Br`, the melting point fell in the range of 254 to 256 °C.

The compound `O=C1C[C@]2(CCCC[C@H]2Cc2ccccc2)S(=O)(=O)CCN1Cc1cccnc1` showed a melting point of 220 to 221 °C. Compound `Nc1ccc2c(c1)CC(CC(=O)O)C2=O` (stereo not drawn) registered a melting point of 192 to 194 °C. Next, `COc1ccc(CNC=C(C(C)=O)C(C)=O)cc1`: 91.2 to 92.2 °C; `O=C(C=Cc1ccc(N2CCCC2)nc1)N1CCc2c([nH]c3ccccc23)C1c1ccc2c(c1)CCO2` (stereo not drawn): 201 °C. In turn, `CC(C#N)(CO)NS(=O)(=O)Cc1ccccc1` (stereo not drawn) registered a melting point of 153 to 155 °C.

As to `CCCCCC(=O)CCc1ccc(CCCCCCCC(=O)O)o1`, the melting point was 64 to 65 °C. On to `COc1ccc(C)c(NC(=O)CC23CC4CC(CC(C4)C2)C3)c1`, for which the melting point was found to be 147 °C.

`CC(C)c1ccnc(C(C)C)c1N` displayed a melting point of 35 to 39 °C. In the case of `CN1C(=O)Cn2c(-c3ccccc3)nnc2-c2cc(Cl)ccc21`, the melting point lay within 204 to 206 °C.

Regarding `CCC(CC)N(O)C(=O)Nc1ccc(-c2ccccc2)cc1`, the melting point lay in the range of 183 to 184 °C.

The compound `CN1C(=O)NC(=O)C1=O` returned a melting point of 146 to 149 °C. As to `CC(=O)OC12Oc3cc(C(C)C)ccc3C1(OC(C)=O)C(=O)c1ccccc12` (stereo not drawn), the melting point was 138 to 140 °C. For `O=C(Nc1cc2ncc(CN3CCCC3)cc2cc1F)c1ccc(-c2ccc(F)cc2)cc1F`, the melting point is 200 to 202 °C.

`CCOP(=O)(OCC)C1=C(C(=O)OC(c2ccccc2)c2ccccc2)N2C(=O)C(NC(=O)COc3ccccc3)C2CC1` (stereo not drawn) returned a melting point of 70 to 74 °C. `Cc1cc(C)cc(C(O)(CCc2cncn2Cc2ccccc2)c2cc(C)cc(C)c2)c1`: the melting point fell in the range of 120 to 124 °C. The compound `CC(=O)Nc1ccc(C2CN(C)Cc3c(Cl)cc(Cl)cc32)cc1` (stereo not drawn) returned a melting point of 205 to 206 °C. `COc1cc2c(cc1OCc1ccccc1)C(Sc1ccc(Cl)cc1)(C(N)=CC(=O)OC(C)(C)C)C2` (stereo not drawn) yielded a melting point of 112 to 115 °C. As to `Cc1c(-c2cc(Nc3cc4n(n3)CCN(C)C4)c(=O)n(COP(=O)(OCCC#N)OCCC#N)n2)cccc1N1Cc2cc(C(C)(C)C)sc2C1=O`, the melting point lay within 208 to 210 °C. In the case of `C=C(F)C(C)(C)C(=O)Nc1ccc(Cl)cc1`, the melting point was in the range of 75 to 76 °C. On to `Cc1cc(CN(C(=O)Nc2ccc(C(=O)O)cc2)c2ccc3c(c2)C(C)(C)CCC3(C)C)no1`, for which the melting point was in the range of 188 to 193 °C. As for `Nc1nc(C2CCN(C(=O)c3ccccc3)CC2)c2ccccc2n1`, the melting point is 138 °C.

Compound `CC(=O)Nc1ccccn1` returned a melting point of 155 to 156 °C. In turn, `CC(C)(O)CCOc1ccc(/C=C/C(=O)O)c(Oc2ncc(C(F)(F)F)cc2Cl)c1` gave a melting point of 192 to 194 °C. For `CCN1c2ncccc2C(=O)Nc2c(C)cc(NCCn3cc[nH]c3=O)nc21`, the melting point was > 300 °C.

`CC(=O)OC1CSC(Oc2cc(-c3ccc(C#N)cc3)cnc2F)C(OC(C)=O)C1OC(C)=O` (stereo not drawn): the melting point lay in the range of 132 to 133 °C. `FC1=CC2NC(=S)CCC2C=C1c1cccnc1` (stereo not drawn): the melting point worked out at 248 °C. Next, `CC(C)(C)OC(=O)N1C(=O)[C@H](O)[C@@H]1C1CCCCC1`: 121 to 122 °C. Compound `CCn1c2ccccc2c2cc(N(c3ccccc3)c3ccccc3)ccc21` returned a melting point of 152 to 154 °C. In turn, `CCCCCC1C=CC(c2ccc(Br)cc2)=CC1` (stereo not drawn) showed a melting point of 74 °C. `CCOC(=O)C1=C(N)NC(C)=CC1c1cccc(Cl)c1` (stereo not drawn): the melting point is 140 °C.

On to `CNC(=O)N1CC(Oc2cccc(C(N)=O)c2)C1`, for which the melting point is 238 to 240 °C.

`CN1C(=O)CC[C@]2(C)c3ccc(Sc4cnccn4)cc3CC[C@@H]12`: the melting point lay within 94 to 95 °C. For `O=C(NCCO)c1cccc(-c2ccc3c(c2)C(Oc2cccc(C(F)(F)F)c2)CC3)c1` (stereo not drawn), the melting point was 157 to 158 °C. Next, `COc1nc(N)nc(C(F)(F)F)n1`: 161 to 164 °C; `CC(=O)Nc1nc(C#N)cs1`: 185 to 188 °C; `CC(C)(C)OC(=O)NCCCCC(=O)N1CCC(c2[nH]nc3c2C(=O)c2c(NC(=O)NN4CCOCC4)cccc2-3)CC1`: 98 to 99 °C. `CCN(CC)C(=O)/C=C(\C)c1ccc(OCc2c(F)cccc2F)c(CC(=O)O)c1` displayed a melting point of 167 to 168 °C. Compound `CCOC(=O)C(=O)c1c[nH]c2ccc(CNS(C)(=O)=O)cc12` came in with a melting point of 218 to 220 °C. Compound `CCCC(=NOCC)C1=C(O)CC(c2c(C)c(C)c(C)c3cc(C(C)=O)oc23)CC1=O` (stereo not drawn) registered a melting point of 154 °C. The compound `COc1cc(O)c(C(=O)CCc2ccc3occc3c2)cc1C(O)C1OC(C(=O)C(C)C(=O)O)C(O)C(O)C1O` (stereo not drawn) gave a melting point of 113 to 114 °C.
